The text below walks through data of patent US4156731A, “Heterocyclic oxime compounds and carbamoyloxime derivatives” (priority 1976, dated 1979).

Data set [1] relates to house flies (Musca domestica, L.). The experiment in a line: Fly Bait Test. The data set is classed as in vivo. Details: key: A: Excellent control; B: Partial control; C: No control. Conditions: adults, 500 ppm in sugar bait, twenty four hours. How it is done: (§1) Selected species of the new compounds were evaluated to determine their pesticidal activity against mites and certain insects, including anaphid, a caterpillar, a beetle and a fly.
(§2) Suspensions of the test compounds were prepared by dissolving one gram of compound in 50 milliliters of acetone in which had been dissolved 0.1 gram (10 percent of the weight of compound) of an alkylphenoxy polyethoxyethanol surfactant, as an emulsifying or dispersing agent. The resulting solution was mixed into 150 milliliters of water to give roughly 200 milliliters of a suspension containing the compound in finely divided form. The thus-prepared stock suspension contained 0.5 percent by weight of test compound. The test concentrations in parts per million by weight employed in the tests described hereinbelow were obtained by appropriate dilutions of the stock suspension with water. The test procedures were as follows:
Four to six day old adult house flies (Musca domestica, L.) reared according to the specifications of the Chemical Specialities Manufacturing Association (Blue Book, McNair-Dorland Co., NY., 1954; pages 234-244, 261) under controlled conditions of 80°±5° F. and 50±5 per cent relative humidity, were the test insects. The flies were immobilized by anesthetizing with carbon dioxide and twenty five immobilized individuals, males and females, were transferred to a cage consisting of a standard food stainer about five inches in diameter which was inverted over a wrapping-paper-covered surface. The test compounds were formulated by diluting the stock suspension with a 10 per cent (by weight) sugar solution to give a suspension containing 500 parts of test compound per million parts of final formulation, by weight. Ten milliliters of the test formulation were added to a souffle cup containing a one inch square of an absorbent cotton pad. This bait cup was introduced and centered on the blotting paper under the food strainer prior to admitting the anesthetized flies. The caged flies were allowed to feed on the bait for twenty four hours, at a temperature of 80°±5° F. and the relative humidity of 50±5 per cent.
(§3) In these tests the pesticidal activity of the compounds against aphid, mite, Southern Armyworm, Mexican Bean Beetle, and house fly was rated as follows: […]

A short description of data set [2]: Peroral toxicity to mammals (rat). Conditions: in vivo, po, mortality rate of 50 percent, read-out: A. O. Rat LD50. How it is done: Certain of these compositions were also evaluated to determine their peroral toxicity to mammals. The animal selected for this experiment was the rat.
In data set [3] the test system is bean aphid (Aphis fabae Scop.). The experiment in a line: Bean Aphid Foliage Spray Test. The data set is classed as in vivo. Conditions: 500 ppm foliage spray, 24 hour holding period. Set-up: key: A: Excellent control; B: Partial control; C: No control. How it is done:
as §1, §2
Bean Aphid Foliage Spray Test
Adults and nymphal stages of the bean aphid (Aphis fabae Scop.) reared on potted dwarf nasturtium plants at 65°-70° F. and 50-70 per cent relative humidity, constituted the test insects. For testing purposes, the number of aphids per pot was standardized to 100-150 by trimming plants containing excess aphids.
The test compounds were formulated by diluting the stock suspension with water to give a suspension containing 500 parts of test compound per million parts of final formulation.
The potted plants (one pot per compound tested) infested with 100-150 aphids, were placed on a revolving turntable and sprayed with 100-110 milliliters of test compound formulation by use of a DeVilbiss spray gun set at 40 psig. air pressure. This application, which lasted 25 seconds, was sufficient to wet the plants to run-off. As a control, 100-110 milliliters of a water-acetone-emulsifier solution containing no test compound were also sprayed on infested plants. After spraying, the pots were placed on their sides on a sheet of white standard mimeograph paper which had been previously ruled to facilitate counting. Temperature and humidity in the test room during the 24 hour holding period were 65°-70° F. and 50-70 per cent, respectively. Aphids which fell into the paper and were unable to remain standing after being uprighted were considered dead. Aphids remaining on the plants wre observed closely for movement and those which were unable to move the length of the body upon stimulator by prodding were considered dead. Per cent mortality was recorded for various concentration levels.
as §3

Data set [4] relates to southern armyworm (Prodenia Eridania, (Cram.)). The data set can be described thus: Southern Armyworm Leaf Spray Test. Details: key: A: Excellent control; B: Partial control; C: No control. Format: in vivo. To be noted: larvae, 500 ppm leaf spray, three days. How it is done: as §1, §2
Southern Armyworm Leaf Spray Test
Larvae of the southern armyworm (Prodenia Eridania, (Cram.), reared on Tendergreen bean plants at a temperature of 80°±5° F. and a relative humidity of 50±5 per cent, constituted the test insects.
The test compounds were formulated by diluting the stock suspension with water to give a suspension containing 500 parts of test compound per million parts of final formulation. Potted Tendergreen bean plants of standard height and age were placed on a revolving turntable and sprayed with […] of test compound formulation by use of a DeVilbiss spray gun set at 10 psig. air pressure.
This application, which lasted 25 seconds, was sufficient to wet plants to run-off. As a control, 100-110 milliliters of a water-acetone-emulsifier solution containing no test compound were also sprayed on infested plants. When dry, the paired leaves were separated and each one was placed in a 9 centimeter Petric dish lined with moistened filter paper. Five randomly selected larvae were introduced into each dish and the dishes were closed. The closed dishes were labeled and held at 80°-85° F. for three days. Although the larvae could easily consume the whole leaf within twenty-four hours, no more food was added. Larvae which were unable to move the length of the body, even upon stimulation by prodding, were considered dead. Per cent mortality was recorded for various concentration levels.
as §3

For data set [5], the system named is two spotted mite (Tetranychus urticae Koch). The data set can be described thus: Mite Foliage Spray Test. Conditions: 500 ppm foliage spray, six days. Format: in vivo. Set-up: key: A: Excellent control; B: Partial control; C: No control. How it is done:
as §1, §2
Adults and nymphal stages of the two spotted mite (Tetranychus urticae Koch), reared on Tendergreen bean plants at 80±5 per cent relative humidity, were the test organisms. Infested leaves from a stock culture were placed on the primary leaves of two bean plants six to eight inches in height, growing in a two-and-a-half inch clay pot. 150-200 mites, a sufficient number for testing, transferred from the excised leaves to the fresh plants in a period of twenty four hours. Following the twenty four hour transfer period, the excised leaves were removed from the infested plants. The test compounds were formulated by diluting the stock suspension with water to give a suspension with water to give a suspension containing 500 parts of test compound per million parts of final formulation. The potted plants (one pot per compound) were placed on a revolving turntable and sprayed with 100-110 milliliters of test compound formulation by use of a DeVilbiss spray gun set at 40 psig. air pressure. This application, which lasted for 25 seconds, was sufficient to wet the plants to run-off. As a control, 100-110 milliliters of a water solution containing acetone and emulsifier in the same concentrations as the test compound formulation, but containing no test compound, were also sprayed on infested plants. The sprayed plants were held at 80±5 per cent relative humidity for six days, after which a mortality count of motile forms were made. Microscopic examination for motile forms was made on the leaves of the test plants. Any individual which was capable of locomotion upon prodding, was considered living.
as §3

The test system of data set [6] is Mexican bean beetle (Epilachna varivestis, Muls.). The data set can be described thus: Mexican Bean Beetle Leaf Spray Test. The data set is classed as in vivo. Details: key: A: Excellent control; B: Partial control; C: No control. To be noted: fourth instar larvae, 500 ppm leaf spray, three days. How it is done:
as §1, §2
Mexican Bean Beetle Leaf Spray Test
Fourth instar larvae of the Mexican bean beetle (Epilachna varivestis, Muls.), reared on Tendergreen bean plants at a temperature of 80°±5° F. and 50±5 per cent relative humidity, were the test insects.
The test compounds were formulated by diluting the stock suspension with water to give a suspension containing 500 parts of test compound per million parts of final formulation. Potted Tendergreen bean plants of standard height and age were placed on a revolving turntable and sprayed with 100-110 milliliters of test compound formulation by use of DeVilbiss spray gun set at 10 psig air pressure. This application, which lasted 25 seconds, was sufficient to wet plants to run-off. As a control, 100-110 milliliters of a water-acetone-emulsifier solution containing no test compound were also sprayed on infested plants. When dry, the paired leaves were separated and each was placed in a 9 centimeter Petri dish lined with moistened filter paper. Five randomly selected larvae were introduced into each dish, and the dishes were closed. The closed dishes were labeled and held at a temperature of […]. for three days. Although the larvae could easily consume the leaf within 24 to 48 hours, no more food was added. Larvae which were unable to move the length of the body, even upon stimulation, were considered dead.
as §3

Take `CC(C)N=C1SC(=NOC(=O)N(C)SC(Cl)(Cl)Cl)C(C)(C)S1` [XLVIII]: the “House-Fly pesticidal activity rating” value in data set [1] is “A”. Further, the median lethal dose (LD50) (as a rule, the dose expected to kill half of the subjects tested) in data set [2] amounted to 226 mg/kg. Besides, in data set [3], the “Bean Aphid pesticidal activity rating” value was “A”. Also, the “Southern Armyworm pesticidal activity rating” value in data set [4] is given as “C”. The “Mite pesticidal activity rating” value in data set [5] was “A”. Besides, the “Mexican Bean Beetle pesticidal activity rating” value in data set [6] is “A”.
For the molecule `CNC(=O)ON=C1SC(=NC(C)C)SC1(C)C` [XLVII], the “House-Fly pesticidal activity rating” value in data set [1] is “A”. Besides, the LD50 in data set [2] amounted to 8.9 mg/kg. The “Bean Aphid pesticidal activity rating” value in data set [3] is reported as “A”. Also, the “Southern Armyworm pesticidal activity rating” value in data set [4] is given as “C”. For the same molecule, in data set [5], the “Mite pesticidal activity rating” value was “A”. Also, in data set [6], the “Mexican Bean Beetle pesticidal activity rating” value is “A”.
For `CC(C)N=C1SC(=NOC(=O)N(C)SN(C)C(=O)ON=C2SC(=NC(C)C)SC2(C)C)C(C)(C)S1` [XLIV, N,N'-Bis-[[5,5-Dimethyl-2-isopropylimino-4-[O-(N-methylcarbamoyl)oximino]-1,3-dithiolane]] sulfide], the “House-Fly pesticidal activity rating” value in data set [1] is “B”. Also, the LD50 in data set [2] stood at 113 mg/kg. Further, the “Bean Aphid pesticidal activity rating” value in data set [3] is reported as “B”. For the same molecule, the “Southern Armyworm pesticidal activity rating” value in data set [4] is given as “C”. The “Mite pesticidal activity rating” value in data set [5] was “C”. Besides, in data set [6], the “Mexican Bean Beetle pesticidal activity rating” value is reported as “A”.
As to `CNC(=O)ON=C1SC(=NC(C)(C)C)SC1(C)C` [L], the “House-Fly pesticidal activity rating” value in data set [1] is recorded as “A”. Besides, in data set [2], the median lethal dose (LD50) amounted to 31.5 mg/kg. The “Bean Aphid pesticidal activity rating” value in data set [3] is listed as “A”. Moreover, the “Southern Armyworm pesticidal activity rating” value in data set [4] is “B”. The “Mite pesticidal activity rating” value in data set [5] is given as “A”. Further, the “Mexican Bean Beetle pesticidal activity rating” value in data set [6] is recorded as “A”.
Consider `CCN=C1SC(=NOC(=O)NC)C(C)(C)S1` [XLVI], for which the “House-Fly pesticidal activity rating” value in data set [1] is listed as “A”. Also, the LD50 in data set [2] worked out at 6.3 mg/kg. In addition, the “Bean Aphid pesticidal activity rating” value in data set [3] was “A”. Besides, in data set [4], the “Southern Armyworm pesticidal activity rating” value is given as “B”. In addition, the “Mite pesticidal activity rating” value in data set [5] was “C”. Also, in data set [6], the “Mexican Bean Beetle pesticidal activity rating” value was “A”.
With `CNC(=O)ON=C1SC(=NS(=O)(=O)c2ccc(C)cc2)SC1(C)C` [LIX], the “House-Fly pesticidal activity rating” value in data set [1] is given as “C”. In addition, the “Bean Aphid pesticidal activity rating” value in data set [3] is “C”. Besides, the “Southern Armyworm pesticidal activity rating” value in data set [4] is listed as “C”. In addition, in data set [5], the “Mite pesticidal activity rating” value is reported as “C”. Also, the “Mexican Bean Beetle pesticidal activity rating” value in data set [6] is “C”.
In the case of `CNC(=O)ON=C1SC(=NN(C)C)SC1(C)C` [LV], the “House-Fly pesticidal activity rating” value in data set [1] is reported as “A”. The median lethal dose (LD50) in data set [2] was found to be 1.8 mg/kg. In data set [3], the “Bean Aphid pesticidal activity rating” value is given as “A”. In data set [4], the “Southern Armyworm pesticidal activity rating” value is recorded as “A”. Further, the “Mite pesticidal activity rating” value in data set [5] is “A”. The “Mexican Bean Beetle pesticidal activity rating” value in data set [6] was “A”.
Turning to `CN(C)N=C1SC(=NOC(=O)N(C)SC(Cl)(Cl)Cl)C(C)(C)S1` [LVI], the “House-Fly pesticidal activity rating” value in data set [1] is on record as “A”. For the same molecule, the “Bean Aphid pesticidal activity rating” value in data set [3] is “A”. For the same molecule, the “Southern Armyworm pesticidal activity rating” value in data set [4] was “A”. Further, in data set [5], the “Mite pesticidal activity rating” value is on record as “A”. Moreover, the “Mexican Bean Beetle pesticidal activity rating” value in data set [6] is “A”.
With `CCOC(=O)C(C#N)=C1SC(=NOC(=O)NC)C(C)(C)S1` [LXI], the “House-Fly pesticidal activity rating” value in data set [1] was “C”. Besides, in data set [3], the “Bean Aphid pesticidal activity rating” value is on record as “C”. Moreover, in data set [4], the “Southern Armyworm pesticidal activity rating” value is reported as “C”. The “Mite pesticidal activity rating” value in data set [5] is “C”. In data set [6], the “Mexican Bean Beetle pesticidal activity rating” value is on record as “A”.
With `CN(SC(Cl)(Cl)Cl)C(=O)ON=C1SC(=C(C#N)C#N)SC1(C)C` [LXIII], the “House-Fly pesticidal activity rating” value in data set [1] is listed as “C”. In data set [2], the LD50 was determined as 538 mg/kg. The “Bean Aphid pesticidal activity rating” value in data set [3] was “A”. Besides, the “Southern Armyworm pesticidal activity rating” value in data set [4] is listed as “C”. In addition, the “Mite pesticidal activity rating” value in data set [5] is given as “C”. Also, the “Mexican Bean Beetle pesticidal activity rating” value in data set [6] was “A”.
With `CNC(=O)ON=C1SC(=C(C#N)c2ccccc2)SC1(C)C` [LXVI], the “House-Fly pesticidal activity rating” value in data set [1] is on record as “C”. The “Bean Aphid pesticidal activity rating” value in data set [3] is “C”. Besides, the “Southern Armyworm pesticidal activity rating” value in data set [4] is on record as “C”. The “Mite pesticidal activity rating” value in data set [5] is listed as “C”. For the same molecule, the “Mexican Bean Beetle pesticidal activity rating” value in data set [6] is listed as “B”.
